Among the test systems are CCRF-CEM leukemia; MALME-3M melanoma; NCI-H23 lung; OVCAR-4 ovarian; OVCAR-8 ovarian; RPMI-8226 leukemia; RXF 393 renal; SK-MEL-2 melanoma; UACC-62 melanoma; UO-31 renal.
Holding throughout (assay): NCI anticancer screen, dose series, 48 h

Structures are written as SMILES.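 The compound was tested at five concentrations on cells cultured in 96-well plates, with a 48-hour exposure period. Here, GI50 denotes the concentration required for 50% inhibition of growth. TGI: total growth inhibition.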

16 compounds from PubChem BioAssay (NCI) can be followed below.

For `COC1=CC(c2ccc[nH]2)=N/C1=C\c1[nH]c(C)c(C(=O)CCCCC(=O)Nc2ccccc2)c1C`, the GI50 is 0.261 µM in the experiment on CCRF-CEM leukemia; 1.28 µM with MALME-3M melanoma; 1.87 µM with NCI-H23 lung; 1.56 µM in the experiment on OVCAR-4 ovarian; 2.02 µM with OVCAR-8 ovarian; 0.142 µM with RPMI-8226 leukemia. Besides, the GI50 with RXF 393 renal is 1.03 µM; in the experiment on SK-MEL-2 melanoma it was 11.9 µM; in the experiment with UACC-62 melanoma, 8.71 µM; in the experiment with UO-31 renal, 1.43 µM. Moreover, the TGI in the experiment on CCRF-CEM leukemia came to 1.43 µM; with MALME-3M melanoma, 3.16 µM; in the experiment with NCI-H23 lung, 4.8 µM; in the experiment with OVCAR-4 ovarian, 3.96 µM; in the experiment on OVCAR-8 ovarian, 4.82 µM; in the experiment on RPMI-8226 leukemia it was 1.82 µM. Besides, the TGI turned out to be 2.23 µM in the experiment on RXF 393 renal, 26.7 µM with SK-MEL-2 melanoma, 24.5 µM in the experiment with UACC-62 melanoma and 3.12 µM in the experiment with UO-31 renal.

`NS(=O)(=O)c1ccc(N2N=C3c4ccccc4CC3C2c2ccc(Cl)cc2)cc1` (stereo unspecified): the GI50 is 6.48 µM in the experiment on CCRF-CEM leukemia; 4.23 µM with MALME-3M melanoma; 11.4 µM in the experiment with NCI-H23 lung; 9.77 µM with OVCAR-4 ovarian; 11.8 µM with OVCAR-8 ovarian; 2.73 µM with RPMI-8226 leukemia. The GI50 in the experiment on RXF 393 renal is 5.07 µM; with SK-MEL-2 melanoma, 8.23 µM; in the experiment on UACC-62 melanoma, 5.97 µM; with UO-31 renal, 7.88 µM. Moreover, the TGI amounted to 42.4 µM with CCRF-CEM leukemia; 19.6 µM in the experiment with MALME-3M melanoma; 34.8 µM in the experiment on NCI-H23 lung; 30.6 µM in the experiment on OVCAR-4 ovarian; 33.4 µM with OVCAR-8 ovarian; 24 µM in the experiment with RPMI-8226 leukemia. For the same compound, the TGI with RXF 393 renal worked out at 19.7 µM; with SK-MEL-2 melanoma, 28.4 µM; in the experiment on UACC-62 melanoma, 22.7 µM; in the experiment on UO-31 renal it was 23.8 µM.

In the case of `CC(C)=CC(=O)Cc1nc2cc(C)c(C)cc2[nH]c1=O`, the TGI in the experiment on CCRF-CEM leukemia, in the experiment with MALME-3M melanoma, with NCI-H23 lung, in the experiment on OVCAR-4 ovarian, in the experiment on RPMI-8226 leukemia and in the experiment on RXF 393 renal was over 100 µM in each case. In addition, the TGI in the experiment with SK-MEL-2 melanoma, in the experiment with UACC-62 melanoma and in the experiment with UO-31 renal was over 100 µM each time.

Consider `COc1ccc2nc3ccccc3c(NCCCCCCN(C)CCCl)c2c1`, for which the TGI was found to be 0.348 µM in the experiment on CCRF-CEM leukemia; 2.06 µM with MALME-3M melanoma; 1.04 µM in the experiment on NCI-H23 lung; 3.03 µM in the experiment with OVCAR-4 ovarian; 1.81 µM in the experiment with OVCAR-8 ovarian; 1.19 µM with RPMI-8226 leukemia. The TGI came to 1.23 µM in the experiment on RXF 393 renal, 1.81 µM in the experiment on SK-MEL-2 melanoma and 1.61 µM with UACC-62 melanoma.

In the case of `CC1C=CC(=O)C(n2cc(F)c(=O)[nH]c2=O)O1` (stereo unspecified), the TGI in the experiment with CCRF-CEM leukemia was determined as 34.4 µM; in the experiment on MALME-3M melanoma it was 35.5 µM; with NCI-H23 lung it was 40.7 µM; in the experiment on OVCAR-4 ovarian it was 34.3 µM; in the experiment with OVCAR-8 ovarian, 65.4 µM; in the experiment with RPMI-8226 leukemia, 38.7 µM. The TGI with RXF 393 renal came to 37.8 µM; in the experiment with UACC-62 melanoma it was 31.7 µM; in the experiment on UO-31 renal, 30 µM.

In the case of `Cc1ccccc1C(C#N)C(=O)C(=O)Nc1cccc(Cl)c1` (stereo unspecified), the TGI is over 100 µM with CCRF-CEM leukemia; over 100 µM in the experiment with MALME-3M melanoma; over 100 µM in the experiment on NCI-H23 lung; over 100 µM in the experiment on OVCAR-8 ovarian; 62.1 µM in the experiment on RPMI-8226 leukemia; over 100 µM with RXF 393 renal. The TGI in the experiment on SK-MEL-2 melanoma, in the experiment with UACC-62 melanoma and with UO-31 renal was over 100 µM each time.

For the compound `Cc1[nH]c(=O)[nH]c(=O)c1CO`, the GI50 in the experiment with CCRF-CEM leukemia, in the experiment with MALME-3M melanoma, with NCI-H23 lung, in the experiment with OVCAR-8 ovarian, with RXF 393 renal and in the experiment on SK-MEL-2 melanoma was over 100 µM in each case. The GI50 in the experiment on UACC-62 melanoma and with UO-31 renal was over 100 µM in each case. In addition, the TGI with CCRF-CEM leukemia, in the experiment on MALME-3M melanoma, in the experiment on NCI-H23 lung, with OVCAR-8 ovarian, in the experiment with RXF 393 renal and in the experiment on SK-MEL-2 melanoma was over 100 µM throughout. The TGI with UACC-62 melanoma and in the experiment with UO-31 renal was over 100 µM in each case.

Consider `C=C(C)[C@@H]1CC[C@]2(C)[C@H](CC[C@@H]3[C@H]4[C@H]5OC[C@@]4(CCC5(C)C)CC[C@]32C)[C@@]1(C)CCCN`, for which the GI50 was 2.44 µM with CCRF-CEM leukemia; 1.77 µM in the experiment on MALME-3M melanoma; 1.77 µM in the experiment on NCI-H23 lung; 2.04 µM in the experiment with OVCAR-4 ovarian; 2.05 µM in the experiment with RPMI-8226 leukemia; 1.64 µM with RXF 393 renal. In addition, the GI50 is 1.71 µM with UACC-62 melanoma and 1.42 µM with UO-31 renal. Moreover, the TGI in the experiment with CCRF-CEM leukemia is over 100 µM; in the experiment with MALME-3M melanoma it was 3.45 µM; in the experiment on NCI-H23 lung, 3.53 µM; in the experiment on OVCAR-4 ovarian, 3.78 µM; in the experiment on RPMI-8226 leukemia, 5.09 µM; with RXF 393 renal, 3.07 µM. Moreover, the TGI turned out to be 3.12 µM in the experiment with UACC-62 melanoma and 2.76 µM in the experiment with UO-31 renal.

Consider `COc1cc(-c2cc(-c3nc4ccc(Cl)cc4[nH]3)[nH]n2)cc(OC)c1OC`, for which the GI50 with CCRF-CEM leukemia was 2.48 µM; in the experiment with MALME-3M melanoma, 2.58 µM; in the experiment on NCI-H23 lung it was 2.73 µM; with OVCAR-4 ovarian it was 1.38 µM; in the experiment on OVCAR-8 ovarian, 2.26 µM; with RPMI-8226 leukemia, 1.65 µM. Moreover, the GI50 was 3.26 µM in the experiment on RXF 393 renal, 1.97 µM in the experiment with UACC-62 melanoma and 2.64 µM in the experiment with UO-31 renal. For the same compound, the TGI in the experiment on CCRF-CEM leukemia turned out to be 7.56 µM; with MALME-3M melanoma it was 8.32 µM; in the experiment with NCI-H23 lung, 8.89 µM; in the experiment with OVCAR-4 ovarian, 4.37 µM; with OVCAR-8 ovarian, 5.59 µM; in the experiment on RPMI-8226 leukemia it was 4.21 µM. The TGI stood at 14.5 µM with RXF 393 renal, 4.95 µM in the experiment on UACC-62 melanoma and 11.2 µM with UO-31 renal.

Turning to `NCc1nnn(Cc2ccccc2)c1N`, the TGI in the experiment with CCRF-CEM leukemia, in the experiment on MALME-3M melanoma, in the experiment on NCI-H23 lung, in the experiment on OVCAR-4 ovarian, in the experiment on OVCAR-8 ovarian and in the experiment on RPMI-8226 leukemia was over 100 µM each time. The TGI in the experiment with RXF 393 renal, in the experiment on SK-MEL-2 melanoma and in the experiment on UACC-62 melanoma was over 100 µM each time.

Take `CCC(C)C(NC(=O)C1CCCN1C(=O)C(NC(=O)C(C)N)C(C)C)C(N)=O` (stereo unspecified): the GI50 was over 100 µM in the experiment with CCRF-CEM leukemia; 52.3 µM in the experiment on MALME-3M melanoma; over 100 µM in the experiment on OVCAR-4 ovarian; over 100 µM with OVCAR-8 ovarian; over 100 µM in the experiment with RXF 393 renal; over 100 µM in the experiment with SK-MEL-2 melanoma. For the same compound, the GI50 in the experiment on UACC-62 melanoma and in the experiment on UO-31 renal was over 100 µM throughout. Further, the TGI with CCRF-CEM leukemia, in the experiment on MALME-3M melanoma, with OVCAR-4 ovarian, in the experiment on OVCAR-8 ovarian, in the experiment on RXF 393 renal and with SK-MEL-2 melanoma was over 100 µM in each case. In addition, the TGI with UACC-62 melanoma and in the experiment with UO-31 renal was over 100 µM throughout.

Take `Cc1ccc(Cl)c(NC(=O)C(=O)C(C(=O)c2ccncc2)C2OC(=O)c3ccccc32)c1` (stereo unspecified): the TGI in the experiment with CCRF-CEM leukemia, in the experiment with MALME-3M melanoma, in the experiment with NCI-H23 lung, with OVCAR-4 ovarian, in the experiment on OVCAR-8 ovarian and with RPMI-8226 leukemia was over 100 µM each time. Moreover, the TGI in the experiment with RXF 393 renal, with UACC-62 melanoma and in the experiment with UO-31 renal was over 100 µM throughout.

`CCN(CC)C(=O)COc1ccc(Br)cc1Br`: the TGI with CCRF-CEM leukemia, with MALME-3M melanoma, in the experiment on NCI-H23 lung, in the experiment with OVCAR-4 ovarian, with RPMI-8226 leukemia and in the experiment with RXF 393 renal was over 100 µM throughout. Besides, the TGI in the experiment on SK-MEL-2 melanoma, in the experiment on UACC-62 melanoma and with UO-31 renal was over 100 µM each time.

For the compound `CC(C)(C)c1ccc(C(O)c2ccc(C(C)(C)C)cc2)cc1`, the TGI worked out at 38.9 µM in the experiment on CCRF-CEM leukemia; 30.4 µM with MALME-3M melanoma; 25.5 µM with NCI-H23 lung; 28.5 µM in the experiment with OVCAR-4 ovarian; 29.2 µM with OVCAR-8 ovarian; 31.2 µM in the experiment on RXF 393 renal. The values for the TGI with SK-MEL-2 melanoma, in the experiment with UACC-62 melanoma and in the experiment with UO-31 renal were 29.4 µM, 30.2 µM and 29.7 µM, respectively.

In the case of `O=C(/C=C\c1ccc(Cl)cc1Cl)c1cccs1`, the TGI in the experiment on CCRF-CEM leukemia turned out to be 73.6 µM; with MALME-3M melanoma, 42.9 µM; in the experiment with NCI-H23 lung, 44 µM; in the experiment with OVCAR-8 ovarian it was 24.8 µM; with RPMI-8226 leukemia, 12.8 µM; in the experiment on RXF 393 renal, 44.3 µM. Besides, the TGI in the experiment with SK-MEL-2 melanoma was determined as 35.5 µM; with UACC-62 melanoma, 28.3 µM; in the experiment with UO-31 renal it was 25 µM.

As for `CC1OC(OCC2COC(O)(Oc3c(-c4ccc(O)c(O)c4)oc4cc(O)cc(O)c4c3=O)C(O)C2O)C(O)C(O)C1O` (stereo unspecified), the TGI with CCRF-CEM leukemia, in the experiment with MALME-3M melanoma, in the experiment with NCI-H23 lung, in the experiment with OVCAR-4 ovarian, with OVCAR-8 ovarian and with RPMI-8226 leukemia was over 100 µM each time. In addition, the TGI in the experiment on RXF 393 renal, in the experiment with UACC-62 melanoma and with UO-31 renal was over 100 µM throughout.
